Test results as given in paper PMC8872763 (Proceedings of the National Academy of Sciences of the …, 2022).

Target: glucose oxidase (GOX) (Aspergillus niger, UniProt P13006)
Assay: time-resolved fluorescence of protein-bound flavin
Format: binding
Conditions: 390-nm excitation

Sequence of glucose oxidase (GOX) (P13006 23-605 limits assumed): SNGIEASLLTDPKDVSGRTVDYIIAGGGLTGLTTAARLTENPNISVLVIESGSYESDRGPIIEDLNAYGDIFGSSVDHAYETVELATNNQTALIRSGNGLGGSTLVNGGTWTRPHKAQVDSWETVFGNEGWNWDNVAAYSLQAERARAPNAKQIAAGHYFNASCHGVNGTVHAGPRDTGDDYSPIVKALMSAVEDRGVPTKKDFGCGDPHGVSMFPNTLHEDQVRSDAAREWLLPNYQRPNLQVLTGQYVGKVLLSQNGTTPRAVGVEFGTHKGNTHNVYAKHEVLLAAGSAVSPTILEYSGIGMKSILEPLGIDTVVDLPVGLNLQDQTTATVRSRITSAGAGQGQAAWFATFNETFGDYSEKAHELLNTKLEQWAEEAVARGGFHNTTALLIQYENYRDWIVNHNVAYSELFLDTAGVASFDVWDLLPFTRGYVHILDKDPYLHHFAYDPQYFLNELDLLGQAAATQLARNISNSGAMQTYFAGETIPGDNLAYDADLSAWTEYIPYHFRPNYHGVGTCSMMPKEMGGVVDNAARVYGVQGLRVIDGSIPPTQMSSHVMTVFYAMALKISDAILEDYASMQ

| Compound | time-resolved fluorescence of protein-bound flavin (Kerr gate) |
| --- | --- |
| Cc1cc2nc3c(=O)[nH]c(=O)nc-3n(C[C@H](O)[C@H](O)[C@H](O)COP(=O)(O)OP(=O)(O)OC[C@H]3O[C@@H](n4cnc5c(N)ncnc54)[C@H](O)[C@@H]3O)c2cc1C [FADox] | The fluorescence decays of FADox and FADH^− in GOX measured under the same experimental conditions |
| Cc1cc2c(cc1C)N(C[C@H](O)[C@H](O)[C@H](O)COP(=O)(O)OP(=O)(O)OC[C@H]1O[C@@H](n3cnc4c(N)ncnc43)[C@H](O)[C@@H]1O)c1[nH]c(=O)[nH]c(=O)c1N2 [FADH^−] | time-resolved fluorescence of FADH^− in GOX exhibits monophasic decay |
